From PubChem BioAssay (NCI)
Several values for one entry are separate records, joined by “and”; a condition that tells them apart may be missing. Identical values can stand only once.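 Values below derive from 48-hour exposures of cells grown in 96-well plates, with endpoints linearly interpolated between the two concentrations bracketing the appropriate inhibition level. Abbreviation: GI50, concentration required for 50% inhibition of growth. TGI is the concentration that stops growth completely.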

Key:
Test in all cases: NCI anticancer screen, dose series, 48 h
[1] = test system: U251 CNS
[2] = test system: T-47D breast
[3] = test system: SK-MEL-2 melanoma
[4] = test system: SK-OV-3 ovarian
[5] = test system: SK-MEL-28 melanoma
[6] = test system: KM12 colon
[7] = test system: OVCAR-5 ovarian
[8] = test system: SK-MEL-5 melanoma
[9] = test system: NCI-H460 lung
[10] = test system: HCT-116 colon

Row | SMILES | GI50 [1] | TGI [1] | GI50 [2] | TGI [2] | GI50 [3] | TGI [3] | GI50 [4] | TGI [4] | GI50 [5] | TGI [5] | GI50 [6] | TGI [6] | GI50 [7] | TGI [7] | GI50 [8] | TGI [8] | GI50 [9] | TGI [9] | GI50 [10] | TGI [10]
1 | COc1ccc(-n2c(SCc3cc(OC)c(OC)c(OC)c3)nc3ccc(C)cc3c2=O)c(OC)c1 | 4.86 µM | > 100 µM | 6.39 µM | > 100 µM | 3.73 µM | 85.1 µM | 4.96 µM | > 100 µM | 5.79 µM | > 100 µM | 3.42 µM | > 100 µM | 7.93 µM | > 100 µM | 3.39 µM | > 100 µM | 3.68 µM | > 100 µM | 3.85 µM | > 100 µM
2 | CC12CCC3C(CC=C4CC(O)CCC43C)C1C/C(=C\N1CCCC1)C2=O (centres undefined) | > 100 µM | > 100 µM | 30.2 µM | > 100 µM | > 100 µM | > 100 µM | > 100 µM | > 100 µM | > 100 µM | > 100 µM | 73.3 µM | > 100 µM | > 100 µM | > 100 µM | 64.5 µM | > 100 µM | > 100 µM | > 100 µM | 69.3 µM | > 100 µM
3 | N[C@@H](Cc1c[nH]c2ccccc12)C(=O)NC1CCN(C(=O)c2c[nH]c3ccccc23)CC1 | > 100 µM | > 100 µM | 74.5 µM | > 100 µM | > 100 µM | > 100 µM | 90.5 µM | > 100 µM | > 100 µM | > 100 µM | 84.8 µM | > 100 µM | > 100 µM | > 100 µM | > 100 µM | > 100 µM | 79.9 µM | > 100 µM | 36.3 µM | > 100 µM
4 | O=C(/C=C/c1cccnc1)NCCCCC1CCN(C(=O)c2ccccc2)CC1 | – | > 100 µM | 1.93 µM | > 90.3 µM | > 100 µM | > 100 µM | > 100 µM | > 100 µM | > 100 µM | > 100 µM | 0.0145 µM and < 0.0118 µM | > 100 µM | 27.7 µM | > 100 µM | 35.3 µM and 21.8 µM | > 100 µM | 0.274 µM and 0.0767 µM | > 100 µM | < 0.01 µM | > 100 µM
5 | CC1=C([Se]CC(OC(=O)CC[Se]c2ccccc2)C(=O)NCCCCCC(=O)OCc2ccccc2)C(=O)c2ccccc2C1=O (centres undefined) | 1.89 µM | 4.07 µM | 2.2 µM | 8.21 µM | 3.32 µM | 9.96 µM | 3.95 µM | 7.27 µM | 2.98 µM | 7.76 µM | 2.27 µM | 5.45 µM | 5.39 µM | 20.1 µM | 1.54 µM | 3.06 µM | 1.78 µM | 5.34 µM | 2.12 µM | 6.53 µM
6 | O=c1c2ccccc2c2ccccc2c(=O)n1-c1cc2c3ccccc3ccc2c2ccccc12 | – | > 100 µM | – | > 100 µM | – | > 100 µM | – | > 100 µM | – | > 100 µM | – | > 100 µM | – | > 100 µM | – | > 100 µM | – | > 100 µM | – | > 100 µM
7 | O=C(O)C(=Cc1ccnc2ccccc12)C(=O)O | – | > 100 µM | – | > 100 µM | – | > 100 µM | – | > 100 µM | – | > 100 µM | – | > 100 µM | – | > 100 µM | – | > 100 µM | – | > 100 µM | – | > 100 µM
8 | O=Cc1c(-c2cc(O)ccc2O)nc2sccn12 | 18.8 µM | 47 µM | 12.3 µM | > 100 µM | 20.1 µM | 55.9 µM | 78.5 µM | > 100 µM | 23.8 µM | 96.6 µM | 5.05 µM | 20.5 µM | 23.1 µM | 74.4 µM | 15.8 µM | 35.6 µM | 18 µM | 40.8 µM | 14 µM | 27.3 µM
9 | Cc1c(C#N)cccc1-c1cc(-c2cn(Cc3cccc(C(C)(C)O)n3)nn2)nc(N)n1 | 39.8 µM | > 100 µM | 6.9 µM | 62.5 µM | 21.3 µM | 79.3 µM | 48.8 µM | > 100 µM | 39.1 µM | > 100 µM | 47.4 µM | > 100 µM | > 100 µM | > 100 µM | 15 µM | 35.1 µM | 44.9 µM | > 100 µM | 32.1 µM | > 100 µM
10 | C=C1C(=O)O[C@H]2[C@H]1CC/C(COC(=O)NCc1cc3ccccc3[nH]1)=C\CC[C@@]1(C)O[C@@H]21 | 4.59 µM | 16.4 µM | 1.8 µM | 4.33 µM | 2.46 µM | 7.25 µM | 13.8 µM | 26.8 µM | 1.74 µM | 3.36 µM | 3.3 µM | 12.8 µM | 2.26 µM | 5.12 µM | 2.98 µM | 9.71 µM | 3.78 µM | 14.6 µM | 1.37 µM | 2.77 µM
11 | CCN(CC)c1ccc(/C=C\c2cc(C)c3cc(C)ccc3n2)cc1 | 5.35 µM | > 100 µM | 1.11 µM | > 100 µM | 7.24 µM | 81 µM | 4.63 µM | > 100 µM | 5.17 µM | > 100 µM | 3.39 µM | 29.6 µM | 17.7 µM | > 100 µM | 1.71 µM | 4.57 µM | 3.51 µM | 24.5 µM | 3.2 µM | > 100 µM
12 | Oc1ccc(Cc2ccc(O)c3ncccc23)c2cccnc12 | 0.0355 µM | > 100 µM | 0.15 µM | 0.704 µM | 0.228 µM | 0.681 µM | 0.214 µM | 0.653 µM | 0.0607 µM | > 100 µM | 0.149 µM | > 100 µM | 0.269 µM | > 100 µM | 0.12 µM | 0.609 µM | 0.0323 µM | > 100 µM | 0.0359 µM | > 100 µM
13 | C/C(=N/S(=O)(=O)c1ccc(Cl)c(Cl)c1)OCC(C)(C)C | – | > 100 µM | – | > 100 µM | – | > 100 µM | – | > 100 µM | – | > 100 µM | – | > 100 µM | – | > 100 µM | – | > 100 µM | – | > 100 µM | – | > 100 µM
14 | CC(=O)Nc1ccc(/C=C/[N+](=O)[O-])cc1 | – | 11.6 µM | – | > 27.9 µM | – | 25.6 µM | – | 24.1 µM | – | 4.13 µM | – | 26.7 µM | – | 9.25 µM | – | 5.97 µM | – | 20.7 µM | – | 6.07 µM
